Experimental data from US5990276A, “Synthetic inhibitors of hepatitis C virus NS3 protease” (Schering Corporation, priority 1997, dated 1999).
pIC50: −log10 of the molar value. Square brackets hold non-standard residues; d marks the D form. Peptide text beside a SMILES is read from it. * marks the point of attachment. Biotin = O=C1N[C@H]2[C@H](CS[C@H]2CCCCC(=O)*)N1

Molecular target: T1, HCV NS3 protease (Hepatitis C virus genotype 1a, UniProt P27958)
T1 construct: HT (hydrophilic solubilizing tail) (C); made in house; host or cells: E. coli M15 [pREP4]
Assay: HPLC assay of inhibition of HCV NS3 protease cleavage of the 5A/5B substrate
Type: biochemical
Conditions: Example 2; separate method not given; read-out: IC50, monovalent inhibitors of the HCV NS3 protease
Description: Into an aqueous solution containing 25 mM TRIS, 50 mM NaCl, 0.5 mM EDTA, 10% glycerol and 0.1% NP40 was placed the potential inhibitor, the HCV NS3 protease at a concentration of 0.05 μM-[…], the HCV NS4A cofactor at a concentration of 0.05 μM-0.1 μM and the 5A/5B substrate at a concentration of 50 μM. This solution was then incubated for approximately 2 hours at 30° C. after which the solution was applied to an HPLC to determine if the 5A/5B remained intact and thus the compound was determined to be an inhibitor. […] The potential inhibitors were assayed at several different concentrations to determine the concentration which produced 50% inhibition of the HCV NS3 protease.

T1 sequence (P27958 1028-1209): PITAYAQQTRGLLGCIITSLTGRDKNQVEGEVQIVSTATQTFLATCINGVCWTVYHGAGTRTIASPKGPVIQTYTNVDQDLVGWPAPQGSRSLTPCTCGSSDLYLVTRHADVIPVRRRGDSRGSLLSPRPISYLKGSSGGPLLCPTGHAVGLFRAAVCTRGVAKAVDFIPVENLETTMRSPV

Row | SMILES | pIC50
1 | CC[C@@H](C)[C@@H](NC(=O)[C@H](NC(=O)[C@@H](CC(C)C)NC(=O)[C@@H](CO)NC(=O)CNC(=O)[C@@H](CCCCN)NC(C)=O)C(C)C)C(=O)N[C@H](CCCNC(=N)N)C(=O)NCC(=O)N[C@@H](C(=O)N[C@@H](C(=O)N[C@@H](C(=O)N[C@@H](C(=O)N[C@H](CS)C(N)=O)C(C)C)C(C)C)[C@H](C)CC)C(C)C [SEQ ID NO.: 13, Lys-Gly-Ser-Leu-Val-Ile-Arg-Gly-Val-Ile-Val-Val-Cys] | 5.70
2 | CC[C@@H](C)[C@@H](NC(=O)[C@H](NC(=O)[C@@H](CC(C)C)NC(=O)[C@@H](CO)NC(C)=O)C(C)C)C(=O)N[C@H](CCCNC(=N)N)C(=O)NCC(=O)N[C@@H](C(=O)N[C@@H](C(=O)N[C@@H](C(N)=O)C(C)C)[C@H](C)CC)C(C)C [SEQ ID NO.: 12, Ser-Leu-Val-Ile-Arg-Gly-Val-Ile-Val] | 6.22
3 | CC[C@@H](C)[C@@H](NC(=O)[C@H](NC(=O)[C@@H](CC(C)C)NC(=O)[C@@H](CO)NC(=O)CNC(=O)[C@@H](CCCCN)NC(=O)CCCC[C@@H]1SC[C@@H]2NC(=O)N[C@@H]21)C(C)C)C(=O)N[C@H](CCCNC(=N)N)C(=O)NCC(=O)N[C@@H](C(=O)N[C@@H](C(=O)N[C@@H](C(=O)N[C@@H](C(=O)N[C@H](CS)C(=O)N[C@@H](CCCCN)C(=O)N[C@@H](CCCCN)C(=O)O)C(C)C)C(C)C)[C@H](C)CC)C(C)C [SEQ ID NO.: 14, Xaa-Lys-Gly-Ser-Leu-Val-Ile-Arg-Gly-Val-Ile Val-Val-Cys-Lys-Lys] (Biotin-[dK]G[dS][dL][dV][dI][dR]G[dV][dI][dV][dV][dC]KK-OH) | 6.40
